Source: patent US9333178B2, “Essential oil microparticles and uses thereof for preventing enteric diseases” (Universidade Estadual de Campinas—UNICAMP, priority 2012, dated 2016)

Key:
[1] = test system: U251 (glioma, CNS); assay: In vitro cytotoxicity, SRB assay; assay type: cell-based, human
Description: Based on the results, growth rate graphics from the sample concentration for each of the tested strain were generated. Three effective concentrations called GI50 (growth inhibition, the concentration required to disrupt 50% cell growth), TGI (total growth inhibition, the concentration required for 0% of cell growth) and LC50 (lethal concentration, concentration required for 50% cell death) could be calculated by nonlinear regression, sigmoidal, using 8.0 Origin software.
In this model, one way to infer the growth rate is by spectrophotometric reading of the absorbance of cellular proteins stained with sulforhodamine B (SRB), an anionic dye staining bright pink. This dye can bind to protein terminations of basic amino acids in living cells fixed with Trichloroacetic acid (TCA), thus being an independent assay of cell metabolism and allowing a sensitive measurement of protein linearly with the number of cells in culture. […]

[2] = test system: 786-0 (kidney); assay: In vitro cytotoxicity, SRB assay; assay type: cell-based, human
Description: (§1) The in vitro cytotoxicity of essential oils (present invention) were evaluated against two normal cell lines (VERO—African green monkey kidney epithelial cells and HaCat—immortal human keratinocytes) and against a panel of human tumor cells.
(§2) Based on the results, growth rate graphics from the sample concentration for each of the tested strain were generated.
(§3) The test results obtained are shown in FIG. 1 (present invention) and table 2. In this model, one way to infer the growth rate is by spectrophotometric reading of the absorbance of cellular proteins stained with sulforhodamine B (SRB), an anionic dye staining bright pink. This dye can bind to protein terminations of basic amino acids in living cells fixed with Trichloroacetic acid (TCA), thus being an independent assay of cell metabolism and allowing a sensitive measurement of protein linearly with the number of cells in culture.
(§4) This test allows us to evaluate the antitumor activity through exposure of human tumor cells in exponential growth phase at different concentrations of the sample and whether that exposure led to an interruption in the growth rate without cell death ([…]) or caused the death cell (cytocidal activity). To measure the activity, an effective concentration called TGI (total growth inhibition, concentration required for 0% cell growth occurs) (Shoemaker, 2006) was calculated.
(§5) Chemotherapy doxorubicin was used as positive control. In addition to a standard of comparison, the main purpose of using this control was to verify that all employed cell lines kept the profile of response to chemotherapy. This is because with successive passages necessary for the maintenance of cell culture, there is the possibility of changing the lineage in culture, and this mutation could be detected by the change in response against doxorubicin. Furthermore, in order to minimize the occurrence of mutations, the cell lines are perpetuated only by up to 20 passages, after which they are replaced by new cells of the same strain that were maintained frozen.

[3] = test system: HaCat (keratinocyte, immortalized normal cell); assay: In vitro cytotoxicity, SRB assay; assay type: cell-based, human; settings: normal cell line
Description: as §1, §2, §3, §4, §5

[4] = test system: MCF-7 (breast); assay: In vitro cytotoxicity, SRB assay; assay type: cell-based, human
Description: as §1, §2, §3, §4, §5

[5] = test system: NCI-ADR/RES (ovary, with multidrug resistant phenotype); assay: In vitro cytotoxicity, SRB assay; assay type: cell-based, human
Description: as §1, §2, §3, §4, §5

[6] = test system: NCI-H460 (lung, non-small cells); assay: In vitro cytotoxicity, SRB assay; assay type: cell-based, human
Description: as §1, §2, §3, §4, §5

[7] = test system: panel of human tumor cells; assay: In vitro cytotoxicity, SRB assay, mean over tumor lines; assay type: cell-based; settings: arithmetic mean of the TGI values for tumor lines
Description: as §1, §2
as §3, with “culture. […]” for “culture.”
Chemotherapy doxorubicin was used as positive control. […] This is because with successive passages necessary for the maintenance of cell culture, there is the possibility of changing the lineage in culture, and this mutation could be detected by the change in response against doxorubicin. […]

COc1cccc2c1C(=O)c1c(O)c3c(c(O)c1C2=O)C[C@@](O)(C(=O)CO)C[C@@H]3O[C@H]1C[C@H](N)[C@H](O)[C@H](C)O1 [Doxorubicin]
>25 µg/mL: TGI (Total Growth Inhibition) [2] | TGI (Total Growth Inhibition) [3] | TGI (Total Growth Inhibition) [4] | TGI (Total Growth Inhibition) [5] | TGI (Total Growth Inhibition) [6] | TGI Average [7]
1.24 µg/mL: TGI (Total Growth Inhibition) [1]
